Data from patent US8946266B2, “Substituted triazole and imidazole derivatives as gamma secretase modulators” (Janssen Pharmaceuticals, Inc., priority 2009, dated 2015).

What was measured:
Aβtotal = assay: In vivo efficacy, Method 2: brain soluble Aβtotal lowering 4 h after a single oral dose, ELISA (Table 4b); set-up: species or system mouse; conditions: dose 30 mg/kg oral dosing
Description: (§1) To determine whether acute administration of an Aβ42 lowering agent would reduce Aβ42 levels in vivo, non-transgenic rodents, e.g. mice or rats were used. Animals treated with the Aβ42 lowering agent were examined and compared to those untreated or treated with vehicle and brain levels of soluble Aβ42 and total Aβ were quantitated by standard techniques, for example, using ELISA. Treatment periods varied from hours (h) to days and were adjusted based on the results of the Aβ42 lowering once a time course of onset of effect could be established.
(§2) A typical protocol for measuring Aβ42 lowering in vivo is shown but it is only one of many variations that could be used to optimize the levels of detectable Aβ. For example, Aβ42 lowering compounds were formulated in 20% of Captisol® (a sulfobutyl ether of β-cyclodextrin) in water or 20% hydroxypropyl β cyclodextrin. The Aβ42 lowering agents were administered as a single oral dose or by any acceptable route of administration to overnight fasted animals. After 4 h, the animals were sacrificed and Aβ42 levels were analysed.
(§3) Blood was collected by decapitation and exsanguinations in EDTA-treated collection tubes. Blood was centrifuged at 1900 g for 10 minutes (min) at 4° C. and the plasma recovered and flash frozen for later analysis. The brain was removed from the cranium and hindbrain. The cerebellum was removed and the left and right hemisphere were separated. The left hemisphere was stored at −18° C. for quantitative analysis of test compound levels. The right hemisphere was rinsed with phosphate-buffered saline (PBS) buffer and immediately frozen on dry ice and stored at −80° C. until homogenization for biochemical assays.
(§4) Mouse brains from non-transgenic animals were resuspended in 8 volumes of 0.4% DEA (diethylamine)/50 mM NaCl containing protease inhibitors (Roche-11873580001 or 04693159001) per gram of tissue, e.g. for 0.158 g brain, add 1.264 ml of 0.4% DEA. All samples were homogenized in the FastPrep-24 system (MP Biomedicals) using lysing matrix D (MPBio #6913-100) at 6 m/s for 20 seconds. Homogenates were centrifuged at 221.300×g for 50 min. The resulting high speed supernatants were then transferred to fresh eppendorf tubes. Nine parts of supernatant were neutralized with 1 part 0.5 M Tris-HCl pH 6.8 and used to quantify Aβtotal and Aβ42.
(§5) To quantify the amount of Aβtotal and Aβ42 in the soluble fraction of the brain homogenates, Enzyme-Linked-Immunosorbent-Assays were used. Briefly, the standards (a dilution of synthetic Aβ1-40 and Aβ1-42, Bachem) were prepared in 1.5 ml Eppendorf tube in Ultraculture, with final concentrations ranging from 10000 to 0.3 pg/ml. The samples and standards were co-incubated with HRPO-labelled N-terminal antibody for Aβ42 detection and with the biotinylated mid-domain antibody 4G8 for Aβtotal detection. 50 μl of conjugate/sample or conjugate/standards mixtures were then added to the antibody-coated plate (the capture antibodies selectively recognize the C-terminal end of Aβ42, antibody JRF/cAβ42/26, for Aβ42 detection and the N-terminus of Aβ, antibody JRF/rAβ/2, for Aβtotal detection). The plate was allowed to incubate overnight at 4° C. in order to allow formation of the antibody-amyloid complex. Following this incubation and subsequent wash steps the ELISA for Aβ42 quantification was finished by addition of Quanta Blu fluorogenic peroxidase substrate according to the manufacturer's instructions (Pierce Corp., Rockford, Ill.). A reading was performed after 10 to 15 min (excitation 320/emission 420).
For Aβtotal detection, a Streptavidine-Peroxidase-Conjugate was added, followed 60 min later by an additional wash step and addition of Quanta Blu fluorogenic peroxidase substrate according to the manufacturer's instructions (Pierce Corp., Rockford, Ill.). A reading was performed after 10 to 15 min (excitation 320 nm/emission 420 nm).
(§6) The results are shown in Table 4b (dose 30 mg/kg oral dosing): […]

Aβ42 = assay: In vivo efficacy, Method 2: brain soluble Aβ42 lowering 4 h after a single oral dose, ELISA (Table 4b); set-up: species or system mouse; conditions: dose 30 mg/kg oral dosing
Description: as §1, §2, §3, §4, §5
In this model at least 20% Aβ42 lowering compared to untreated animals would be advantageous.
as §6

melting point [°C]	SMILES	Aβtotal (% Ctrl) _Mean (Aβtotal) [% Ctrl]	Aβ42 (% Ctrl) _Mean (Aβ42) [% Ctrl]
	COc1cc(-c2nc(Nc3ccc(F)cc3C(F)(F)F)n(C)n2)ccc1-n1cnc(C)c1 [Compound 15]	−5	37
	COc1cc(-c2nc(Nc3cccc(C(F)(F)F)c3)n(C)n2)ccc1-n1cnc(C)c1 [Compound 146]	2	17
115.8	COc1cc(-c2nc(-c3ccccc3)n(C)n2)ccc1-n1cnc(C)c1 [Compound 9]		
